According to ChEMBL document CHEMBL1201862, “PubChem BioAssay data set” (2004):
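Dose response: 5 concentrations. Exposure: 48 h. Format: 96-well plates. Endpoint: linear interpolation; highest concentration if not reached. GI50 is the concentration that inhibits growth by half.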 Active and inactive are the calls of the source. Cut-off read from the data, not from the text of the source: active = GI50 up to about 1.1 µM and inactive = higher.

Key:
Experiment in all cases: NCI-60 cell line screen, 48 h
ACHN = tested on: ACHN
CAKI-1 = tested on: CAKI-1
COLO 205 = tested on: COLO 205
DU-145 = tested on: DU-145
HCC 2998 = tested on: HCC 2998
HCT-15 = tested on: HCT-15
HL-60 = tested on: HL-60
K562 = tested on: K562
LOX IMVI = tested on: LOX IMVI
M14 = tested on: M14
MCF7 = tested on: MCF7
NCI-H460 = tested on: NCI-H460
OVCAR-4 = tested on: OVCAR-4
OVCAR-8 = tested on: OVCAR-8
PC-3 = tested on: PC-3
RPMI-8226 = tested on: RPMI-8226
SN12C = tested on: SN12C
SNB-19 = tested on: SNB-19
SW-620 = tested on: SW-620
U-251 = tested on: U-251

Measured: GI50

Nc1ccc(-c2nc3ccccc3s2)cc1
19.5 µM: HCT-15
inactive: ACHN 15.7 µM | CAKI-1 24.2 µM | COLO 205 23.8 µM | DU-145 16.4 µM | HCC 2998 59.7 µM | HL-60 24.9 µM | K562 21.9 µM | LOX IMVI 16.8 µM | M14 18.6 µM | MCF7 19.1 µM | NCI-H460 20.8 µM | OVCAR-4 14.8 µM | OVCAR-8 12.8 µM | PC-3 14.9 µM | RPMI-8226 28.6 µM | SN12C 19.1 µM | SNB-19 28.1 µM | SW-620 20 µM | U-251 17.4 µM

O=C1OC(c2ccco2)=N/C1=C\c1ccc(Cl)c(Cl)c1
inactive: ACHN 60 µM | CAKI-1 91 µM | COLO 205 > 100 µM | DU-145 98.6 µM | HCC 2998 70.8 µM | HL-60 > 100 µM | K562 > 100 µM | LOX IMVI > 100 µM | M14 > 100 µM | MCF7 3.67 µM | NCI-H460 88.7 µM | OVCAR-4 85.1 µM | OVCAR-8 56.2 µM | PC-3 > 100 µM | RPMI-8226 > 100 µM | SN12C > 100 µM | SNB-19 > 100 µM | SW-620 > 100 µM | U-251 57.7 µM
> 100 µM: HCT-15

CC(C)(C)c1nc2c(o1)/C(=N\c1ccc(F)cc1)c1ccccc1C2=O
inactive: ACHN 4.85 µM | CAKI-1 50.9 µM | COLO 205 15.7 µM | DU-145 10.4 µM | HCC 2998 9.12 µM | HL-60 > 28.6 µM | K562 4.1 µM | LOX IMVI 2.56 µM | M14 2.96 µM | MCF7 4.13 µM | NCI-H460 5.74 µM | OVCAR-4 28.8 µM | OVCAR-8 7.21 µM | PC-3 5.41 µM | RPMI-8226 26.9 µM | SN12C 5.69 µM | SNB-19 8.24 µM | SW-620 4.27 µM | U-251 3.48 µM
5.19 µM: HCT-15

O=c1c2cccnc2[nH]c2ccc3cn[nH]c3c12
9.42 µM: HCT-15
inactive: ACHN 3.97 µM | CAKI-1 8.77 µM | COLO 205 > 10 µM | DU-145 > 10 µM | HCC 2998 > 10 µM | HL-60 4.49 µM | K562 > 10 µM | LOX IMVI 5.58 µM | M14 7.14 µM | MCF7 7.06 µM | NCI-H460 7.43 µM | OVCAR-4 > 10 µM | OVCAR-8 6.76 µM | PC-3 > 10 µM | RPMI-8226 > 10 µM | SN12C 9.06 µM | SNB-19 > 10 µM | SW-620 > 10 µM | U-251 > 10 µM

CC[C@@H]1CC[C@@H]2[C@H](CC[C@]3(C)[C@@H](OC(C)=O)CC[C@@H]23)[C@H]1COC(C)=O
inactive: ACHN 53.8 µM | CAKI-1 29 µM | COLO 205 19.1 µM | DU-145 > 100 µM | HCC 2998 13.4 µM | HL-60 20.7 µM | K562 17.6 µM | LOX IMVI 17.4 µM | M14 25.4 µM | MCF7 31.6 µM | NCI-H460 19.9 µM | OVCAR-4 22.5 µM | OVCAR-8 23 µM | PC-3 30.1 µM | RPMI-8226 25.6 µM | SN12C 22.9 µM | SNB-19 36.9 µM | SW-620 31.8 µM | U-251 19.5 µM
23.9 µM: HCT-15

NC(CCCCCP(=O)(c1ccccc1)C1C=CC=CC1)C(=O)O (stereo not given)
> 100 µM: HCT-15
inactive: ACHN > 100 µM | CAKI-1 > 100 µM | COLO 205 > 100 µM | DU-145 > 100 µM | HCC 2998 > 10 µM | HL-60 > 100 µM | K562 > 100 µM | LOX IMVI > 100 µM | M14 > 100 µM | MCF7 > 100 µM | NCI-H460 > 100 µM | OVCAR-4 > 100 µM | OVCAR-8 > 100 µM | PC-3 > 100 µM | RPMI-8226 > 100 µM | SN12C > 100 µM | SNB-19 > 100 µM | SW-620 > 100 µM | U-251 > 100 µM

NC(CO)C(=O)NCC(=O)O (stereo not given)
inactive: ACHN > 100 µM | CAKI-1 > 100 µM | COLO 205 > 100 µM | DU-145 > 100 µM | HCC 2998 > 100 µM | HL-60 > 100 µM | K562 > 100 µM | LOX IMVI > 100 µM | M14 > 100 µM | MCF7 > 100 µM | NCI-H460 > 100 µM | OVCAR-4 > 100 µM | OVCAR-8 > 100 µM | PC-3 > 100 µM | RPMI-8226 > 100 µM | SN12C > 100 µM | SNB-19 > 100 µM | SW-620 > 100 µM | U-251 > 100 µM
> 100 µM: HCT-15

CS/C1=C(\c2ccc(C)cc2)N(c2ccccc2)C(=O)C(=O)N(c2ccccc2)/C(c2ccc(C)cc2)=C(/SC)SS1
> 100 µM: HCT-15
inactive: ACHN > 100 µM | CAKI-1 > 100 µM | COLO 205 > 100 µM | DU-145 > 100 µM | HCC 2998 > 100 µM | HL-60 > 100 µM | K562 > 100 µM | LOX IMVI > 100 µM | M14 82.8 µM | MCF7 > 100 µM | NCI-H460 > 100 µM | OVCAR-4 > 100 µM | OVCAR-8 > 100 µM | PC-3 > 100 µM | RPMI-8226 > 100 µM | SN12C > 100 µM | SNB-19 > 100 µM | SW-620 > 100 µM | U-251 > 100 µM

Cc1ccccc1CN1CC2=C(CCN(Cc3ccccc3)C2=O)N2CCN=C12
inactive: ACHN 6.61 µM | CAKI-1 4.69 µM | COLO 205 1.86 µM | DU-145 6.14 µM | HCC 2998 4.06 µM | HL-60 3.78 µM | K562 2.96 µM | LOX IMVI 3.49 µM | M14 6.4 µM | MCF7 4.86 µM | NCI-H460 4.24 µM | OVCAR-4 3.27 µM | OVCAR-8 4.76 µM | PC-3 3.58 µM | RPMI-8226 1.55 µM | SN12C 5.6 µM | SNB-19 6.79 µM | SW-620 4.5 µM | U-251 4.8 µM
5.04 µM: HCT-15

COC(=O)C1=C(C(=O)OC)SC2(S1)C1=C(CCC1)SC(C(=O)OC)=C2C(=O)OC
6.08 µM: HCT-15
inactive: ACHN 12.3 µM | CAKI-1 5.87 µM | COLO 205 13.8 µM | DU-145 4.4 µM | HCC 2998 16.3 µM | HL-60 6.76 µM | K562 3.09 µM | LOX IMVI 3.33 µM | M14 18.3 µM | MCF7 4.33 µM | NCI-H460 5.37 µM | OVCAR-4 15.1 µM | OVCAR-8 10.2 µM | PC-3 11.2 µM | RPMI-8226 1.86 µM | SN12C 10.7 µM | SNB-19 19.6 µM | SW-620 2.43 µM | U-251 15.6 µM

CC1C=CN(N(C)C)C2=C1C(=O)c1cnccc1C2=O (stereo not given)
inactive: COLO 205 1.12 µM | HL-60 1.47 µM | PC-3 1.49 µM
active: ACHN 0.251 µM | CAKI-1 0.108 µM | DU-145 0.372 µM | HCC 2998 0.589 µM | K562 0.205 µM | LOX IMVI 0.129 µM | M14 0.424 µM | MCF7 0.274 µM | NCI-H460 0.148 µM | OVCAR-4 0.662 µM | OVCAR-8 0.883 µM | RPMI-8226 0.531 µM | SN12C 0.168 µM | SNB-19 0.832 µM | SW-620 0.395 µM | U-251 0.417 µM
0.231 µM: HCT-15

O=C(O)CC(O)(C(=O)O)C(O)C(=O)O (stereo not given)
inactive: ACHN > 1000 µM | CAKI-1 > 1000 µM | COLO 205 > 1000 µM | DU-145 > 1000 µM | HCC 2998 > 1000 µM | HL-60 > 1000 µM | K562 > 1000 µM | LOX IMVI 440 µM | M14 > 1000 µM | MCF7 > 1000 µM | NCI-H460 > 1000 µM | OVCAR-4 > 1000 µM | OVCAR-8 > 1000 µM | PC-3 > 1000 µM | RPMI-8226 787 µM | SN12C > 1000 µM | SNB-19 > 1000 µM | SW-620 > 1000 µM | U-251 > 1000 µM
> 1000 µM: HCT-15

Cc1nc2cc(/N=N/c3c(C)noc3C)ccc2[nH]1
inactive: ACHN 25.1 µM | CAKI-1 18.9 µM | COLO 205 15.1 µM | DU-145 27.7 µM | HCC 2998 54.3 µM | HL-60 13.1 µM | K562 35.6 µM | LOX IMVI 16.6 µM | M14 26.5 µM | MCF7 18.2 µM | NCI-H460 21.8 µM | OVCAR-4 64.7 µM | OVCAR-8 24.5 µM | PC-3 27.6 µM | RPMI-8226 17.9 µM | SN12C 33.6 µM | SNB-19 43.9 µM | SW-620 24.8 µM | U-251 28.4 µM
27.2 µM: HCT-15

CCCCCC(/C=C/[C@@H]1CC(=O)C[C@H]1O[Si](C)(C)C(C)(C)C)OCOCCOC (stereo not given in full)
inactive: ACHN 2.96 µM | CAKI-1 3.07 µM | COLO 205 5.2 µM | DU-145 16.3 µM | HCC 2998 13.6 µM | HL-60 > 100 µM | K562 2.4 µM | LOX IMVI 2.7 µM | M14 4.04 µM | MCF7 3.65 µM | NCI-H460 17.2 µM | OVCAR-4 5.56 µM | OVCAR-8 4.23 µM | PC-3 4.16 µM | RPMI-8226 2.61 µM | SN12C 8.43 µM | SNB-19 4.52 µM | SW-620 2.96 µM | U-251 2.52 µM
3.86 µM: HCT-15
